The text below walks through data of patent US20240398783A1, “Compounds and Pharmaceutical Compositions Comprising Inhibitors of Amyloid Peptide Interactions with Glycosaminoglycans, Methods of Treatment and Use Thereof” (Gismo Therapeutics, Inc., priority 2021, published 2024).

Counter-ions that a name gives are not always drawn.

The target in one experiment is T1, SAA binding to heparin (HS-GAG) (Homo sapiens, UniProt P0DJI8).
T1 sequence (P0DJI8 19-122): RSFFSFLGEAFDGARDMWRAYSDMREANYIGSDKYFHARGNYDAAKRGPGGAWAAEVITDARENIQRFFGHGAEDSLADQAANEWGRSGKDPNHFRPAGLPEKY
Put plainly: Inhibition of SAA binding to immobilized heparin-BSA (ELISA). Also on record: species or system porcine. The note with it: 30 μM compound; SAA, heparin-BSA; read-out: Serum Amyloid A/Heparin Activity (% inhibition class). The method, then:
Porcine intestinal mucosa heparin conjugated to Bovine Serum Albumin (Heparin-BSA) was prepared as described (Najjam, S. et al. 1997, Cytokine 12, 1013-1022). Heparin is a sulfated HS-GAG and is commonly used as a HS-GAG in biochemical and binding assays (Lindahl, U. and Kjellen, L. (2013) ibid). Heparin-BSA at 0.01 mg/ml in Phosphate Buffered Saline (PBS; pH 7.4) was added to a 96 well polystyrene ELISA plate (NUNC Cat. No. 449824; 100 μl per well) and incubated Over Night (ON) at 4 degrees Celsius. For negative controls, ELISA plates were coated with BSA instead of Heparin-BSA, using the same procedure. Following the incubation, the plate was washed consecutively, by immersion, with de-ionized water and PBS (pH 7.4). The ELISA plate was then blocked with nonfat milk (2%, 200 μl per well) for 2 hours at Room Temperature (RT) with gentle shaking. Following blocking, the plate was washed with de-ionized water then PBS (pH 7.4). GBAPs were dissolved and diluted in PBS (pH 6.5, supplemented with 0.1% BSA) at desired concentrations, added to the ELISA plates containing immobilized Heparin-BSA (100 μl per well) and incubated for 2 hours at RT with gentle shaking. Following incubation, the plate was washed with de-ionized water and three times with PBS (pH 6.5) plus Tween. Bound GBAP was detected by a monoclonal antibody specific for that GBAP, followed by incubation with secondary antibody conjugated to horseradish peroxidase (HRP). Antibody was diluted in PBS (pH 6.5 supplemented with 1% BSA). Following each incubation with antibody, the plate was washed with de-ionized water and three times with PBS (pH 6.5) wash buffer containing 0.1% Tween. The peroxidase substrate chromogen, TMB (Dako Cat. No. S1599) was added (100 μl per well) to the ELISA plate and incubated at room temperature. After 5 minutes ELISA Stop Solution (hydrochloric acid 1N, sulfuric acid 3N) was added (100 μl per well) to stop the peroxidase catalyzed colorimetric reaction. The Optical Density of the samples was measured at 450 nm using an ELISA plate reader (BioTek Synergy H1). Following color development, the % inhibition compared to control (BSA-coated plates) was determined. IC-50s were calculated using GraphPad Prism software.
The assay was performed as described in Example 43, with the following modifications. Following to coating the plates with Heparin-BSA, plates were washed as described. The compounds were dissolved in DMSO at 10 mM final concentration and further diluted prior to assay. DMSO concentration in the screening well was up to 2%. Individual compounds were co-incubated with SAA on plates containing immobilized heparin. Serum amyloid A (SAA) from PeProtech (NJ, USA, Cat. No. 300-53) was dissolved in DMSO, quickly frozen and kept in aliquots at −80 degrees Celsius. SAA dissolved in Tris buffer (pH 6.5, supplemented with BSA, 0.1%) was added to the ELISA plate (100 μl per well) and incubated for 2 hours at RT with gentle shaking. Following the incubation, the plate was washed with de-ionized water and three times with Tris Buffered Saline (TBS, pH 6.5) plus Tween. Bound SAA was detected by Anti-SAA Monoclonal Antibody (R&D System Cat. No. MAB30192), followed by secondary anti-IgG antibody conjugated to HRP (R&D System, Cat. No. HAF007). Antibody was diluted in TBS antibody buffer (pH6.5 supplemented with 1% BSA). Following each incubation with antibody, the plate was washed with de-ionized water and three times with TBS (pH6.5) wash buffer containing 0.1% Tween. Following to color development with TMB, as described in Example 43, the Optical Density of the samples was measured at 450 nm using an ELISA plate reader. Following color development, the % inhibition compared to control (no compound, DMSO control) for every compound was determined.
As described in Example 43, Heparin in the form of Heparin-BSA conjugate is used as a source of HS-GAG. For each compound IC-50 value in SAA—heparin-BSA binding assay is shown in μM (micromolar). […]
Regarding `O=S1(=O)CCN(Cc2ccc(/C=N/Nc3ccnc4cc(F)ccc34)cc2)CC1` [Compound 10, (E)-4-(4-((2-(7-fluoroquinolin-4-yl)hydrazono)methyl)benzyl)thiomorpholine 1,1-dioxide], the inhibition at 30 µM was < 30%.

With `C[n+]1ccc(/C=N\Nc2ccnc3ccccc23)cc1` [Compound 9, (Z)-1-methyl-4-((2-(quinolin-4-yl)hydrazono)methyl)pyridin-1-ium iodide], the inhibition at 30 µM is < 30%.

On to `C[N+](C)(C)Cc1ccc(/C=N\Nc2ccnc3ccc(Cl)cc23)cc1` [Compound 4, (Z)-1-(4-((2-(6-chloroquinolin-4-yl)hydrazineylidene)methyl)phenyl)—N,N,N-trimethylmethanaminium iodide], for which the inhibition at 30 µM is < 30%.

Consider `Fc1ccc2c(N/N=C/c3ccc(CN4CCOCC4)cc3)ccnc2c1` [Compound 6, (E)-4-(4-((2-(7-fluoroquinolin-4-yl)hydrazono)methyl)benzyl)morpholine], for which the inhibition at 30 µM was > 30%.

Staying with this experiment, now noted: SAA, heparin-BSA; read-out: Serum Amyloid A/Heparin Activity (IC-50).
As to `C/C(=N\Nc1ncnc2cc(F)ccc12)c1ccc(-n2cnc(C)c2C)nc1` [Compound 21, (E)-4-(2-(1-(6-(4,5-dimethyl-1H-imidazol-1-yl)pyridin-3-yl)ethylidene)hydrazineyl)-7-fluoroquinazoline], the IC50 amounted to 85.2 µM.

With `C/C(=N\Nc1ncnc2cc(Cl)ccc12)c1ccc(-n2cc(C)nc2C)nc1` [Compound 18, (E)-7-chloro-4-(2-(1-(6-(2,4-dimethyl-1H-imidazol-1-yl)pyridin-3-yl)ethylidene)hydrazineyl)quinazoline phosphoric acid salt], the IC50 is 22.2 µM.

Consider `CC(=NNc1ncnc2cc(Cl)ccc12)c1ccnc(-n2cnc(C)c2C)c1` [Compound 28, 7-chloro-4-(2-(1-(2-(4,5-dimethyl-1H-imidazol-1-yl)pyridin-4-yl)ethylidene)hydrazineyl)quinazoline], for which the IC50 was determined as 8.78 µM.

For `C/C(=N\Nc1nncc2cc(Cl)ccc12)c1ccc(-n2cc(C)nc2C)nc1` [Compound 24, (E)-6-chloro-1-(2-(1-(6-(2,4-dimethyl-1H-imidazol-1-yl)pyridin-3-yl)ethylidene)hydrazineyl)phthalazine], the IC50 stood at 7.89 µM.

Staying with this experiment, now noted: read-out: Serum Amyloid A/Heparin Activity (% inhibition class).
Take `COc1cc2nccc(N/N=C/c3ccc(-n4ccnc4)c(OC)c3)c2cc1OC` [Compound 13, (E)-4-(2-(4-(1H-imidazol-1-yl)-3-methoxybenzylidene)hydrazineyl)-6,7-dimethoxyquinoline phosphate]: the inhibition at 30 µM is < 30%.

Take `C/C(=N\Nc1ncnc2cc(F)ccc12)c1ccc(-n2cc[n+](C)c2)nc1` [Compound 26, (E)-1-(5-(1-(2-(7-fluoroquinazolin-4-yl)hydrazineylidene)ethyl)pyridin-2-yl)-3-methyl-1H-imidazol-3-ium phosphoric acid salt]: the inhibition at 30 µM was < 30%.

With `C/C(=N\Nc1ncnc2cc(Cl)ccc12)c1cccc(N2CCN(C)CC2)c1` [Compound 30, 7-chloro-4-(2-(1-(3-(4-methylpiperazin-1-yl)phenyl)ethylidene)hydrazineyl)quinazoline], the inhibition at 30 µM was < 30%.

Regarding `C/C(=N\Nc1ncnc2cc(Cl)ccc12)c1ccc(-n2cncn2)nc1` [Compound 32, (E)-4-(2-(1-(6-(1H-1,2,4-triazol-1-yl)pyridin-3-yl)ethylidene)hydrazineyl)-7-chloroquinazoline], the inhibition at 30 µM is > 30%.

On to `COc1cc(Nc2nncc3cc(Cl)ccc23)cnc1-n1cnc(C)c1C` [Compound 31, 6-chloro-N-(6-(4,5-dimethyl-1H-imidazol-1-yl)-5-methoxypyridin-3-yl)phthalazin-1-amine phosphoric acid salt], for which the inhibition at 30 µM was > 30%.

With `C/C(=N\Nc1ncnc2cc(Cl)ccc12)c1cccc(CN(C)C)c1` [Compound 29, 1-(3-(1-(2-(7-chloroquinazolin-4-yl)hydrazineylidene)ethyl)phenyl)—N,N-dimethylmethanamine], the inhibition at 30 µM is < 30%.

The same experiment, now with this note: read-out: Serum Amyloid A/Heparin Activity (IC-50); SAA, heparin-BSA.
Regarding `C[n+]1ccn(-c2ccc(Nc3ncnc4cc(Cl)ccc34)cn2)c1` [Compound 43, 1-(5-((7-chloroquinazolin-4-yl)amino)pyridin-2-yl)-3-methyl-1H-imidazol-3-ium iodide phosphoric acid salt], the IC50 worked out at 31.5 µM.

Regarding `C/C(=N\Nc1ncnc2cc(Cl)ccc12)c1ccc(-n2cnc(C)c2C)nc1` [Compound 16, 7-chloro-4-(2-(1-(6-(4,5-dimethyl-1H-imidazol-1-yl)pyridin-3-yl)ethylidene)hydrazineyl)quinazoline phosphate], the IC50 was 13.9 µM.

Turning to `Cc1ncn(-c2ccc(/C=N/Nc3ccnc4cc(Cl)ccc34)cc2)c1C` [Compound 2, (E)-7-chloro-4-((E)-(4-(4,5-dimethyl-1H-imidazol-1-yl)benzylidene)hydrazono)-1,4-dihydroquinoline], the IC50 worked out at 16 µM.

Take `Cc1ncn(-c2ccc(/C=N\Nc3ncnc4cc(Cl)ccc34)cn2)c1C` [Compound 15, 7-chloro-4-(2-((6-(4,5-dimethyl-1H-imidazol-1-yl)pyridin-3-yl)methylene)hydrazineyl)quinazoline hydrochloride]: the IC50 amounted to 12.3 µM.

Take `COc1ccc2c(NN=Cc3ccc(-n4ccnc4)c(C)c3)ccnc2c1` [Compound 12, 4-(2-(4-(1H-imidazol-1-yl)-3-methylbenzylidene)hydrazineyl)-7-methoxyquinoline]: the IC50 was 31.7 µM.

In the case of `Clc1ccc2c(Nc3ccc(-n4cncn4)nc3)ncnc2c1` [Compound 34, N-(6-(1H-1,2,4-triazol-1-yl)pyridin-3-yl)-7-chloroquinazolin-4-amine phosphoric acid salt], the IC50 was 12.4 µM.

Take `Cc1ncn(-c2ccc(Nc3ncnc4cc(Cl)ccc34)cn2)c1C` [Compound 25, 7-chloro-N-(6-(4,5-dimethyl-1H-imidazol-1-yl)pyridin-3-yl)quinazolin-4-amine]: the IC50 was found to be 40.9 µM.

Turning to `Clc1ccc2c(N/N=C/c3ccc(-n4ccnc4)nc3)ccnc2c1` [Compound 14, (E)-4-(2-((6-(1H-imidazol-1-yl)pyridin-3-yl)methylene)hydrazineyl)-7-chloroquinoline hydrochloride], the IC50 was 7.67 µM.

Consider `CC(=NNc1ccnc2cc(Cl)ccc12)c1ccc(-n2ccnc2)cc1` [Compound 36, 4-(2-(1-(4-(1H-imidazol-1-yl)phenyl)ethylidene)hydrazineyl)-7-chloroquinoline phosphate], for which the IC50 worked out at 22 µM.

Take `Clc1ccc2c(Nc3ccc(-n4cncn4)nc3)ccnc2c1` [Compound 44, N-(6-(1H-1,2,4-triazol-1-yl)pyridin-3-yl)-7-chloroquinolin-4-amine]: the IC50 was 17.4 µM.

Turning to `C/C(=N\Nc1ncnc2cc(Cl)ccc12)c1ccc(-n2cc[n+](C)c2)nc1` [Compound 17, (E)-1-(5-(1-(2-(7-chloroquinazolin-4-yl)hydrazineylidene)ethyl)pyridin-2-yl)-3-methyl-1H-imidazol-3-ium iodide phosphoric acid salt], the IC50 came to 34.9 µM.
